{"source": "patent US12404251B2", "about": "“Small molecule compound” (Cerepeut, Inc., priority 2017, dated 2025)", "key": {"NCI-H82": {"tested_on": "NCI-H82", "test": "CellTiter-Glo cell viability, NCI-H82 SCLC model", "assay_type": "cell-based, human", "conditions": "NCI-H82, 72 hour incubation", "protocol": "(§1) Cell seeding (Day “−1”): The cell density of eight adherent cell lines was adjusted according to supplier-recommended information. 50 μL cells were seeded in four 384-well-plates, and 50 μL DPBS was added to the edge wells.\n(§2) Compound preparation (Day 0): All test compounds were dissolved in DMSO and stored in a nitrogen cabinet. The stock concentration of the test compounds was 120 mM. The stock concentration of the reference compounds was 10 mM. The reference compound paclitaxel was diluted with DMSO to provide a 400 μM stock solution.\n(§3) Cell treatment with test compounds (Day 0): Test compounds (125 nL in DMSO) were added to the wells using an ECHO liquid handling system (Labcyte Inc.) and serially diluted by three fold, providing 10 doses in each series with a maximum concentration of 300 μM. […]\n(§4) Assay (Day 3): After the cells were treated with the compounds for 72 hours, the plates were equilibrated at room temperature for approximately 30 minutes. 25 μL of CellTiter Glo reagent was added to each well, and the luminescence in each well was measured after 10 min using an ENVISION fluorescence plate reader (PerkinElmer). […]\n(§5) To evaluate the anti-tumor activity of CPT-2008, the growth inhibitory effect of the compound was measured in various human cancer cell lines after 72 hour incubation. […] The data recorded for the paclitaxel reference compound were consistent with the historical published data."}, "paclitaxel-treated rats": {"tested_on": "paclitaxel-treated rats", "test": "Paclitaxel-induced neuropathic pain model, paw withdrawal test", "assay_type": "in vivo, rat", "conditions": "100 mg/kg intraperitoneal; 1.5 h, 3 h, 4.5 h post dosing; vs vehicle (FIG. 20)", "protocol": "An estimated 30-40% of cancer patients undergoing chemotherapy experience peripheral neuropathic pain, a neuroinflammation-induced debilitating side effect that causes patients to stop their treatment early or take lower doses. The effects of CPT-2008 in reducing neuropathic pain were studied in paclitaxel-treated rats. After paclitaxel treatment for 8 days, Sprague-Dawley rats were housed for additional days. On day 22, 16 rats were randomly separated into two groups. One group was dosed with vehicle, and the other group was dosed via intraperitoneal injection with CPT-2008 at 100 mg/kg. Pain (mechanical allodynia) test subjects was assessed using a paw withdrawal test (PWT) as described by Xie (“Activation of notch signaling mediates the induction and maintenance of mechanical allodynia in a rat model of neuropathic pain.” Molecular Medicine Reports 12: 639-644, 2015). Rats were measured for paw withdrawal threshold post dosing of test compound at 1.5 h, 3 h, and 4.5 h."}, "NCI-H446": {"tested_on": "NCI-H446", "test": "CellTiter-Glo cell viability, NCI-H446 SCLC model", "assay_type": "cell-based, human", "conditions": "NCI-H446, 72 hour incubation", "protocol": "as §1, §2, §3, §4, §5"}, "human GBM cells [1]": {"tested_on": "human GBM cells", "test": "Self-renewal of GBM cells (neurosphere formation)", "assay_type": "cell-based", "conditions": "20 uM CPT-2008 vs DMSO vehicle (FIG. 18)", "protocol": "Control: cells treated with DMSO vehicle; CPT-2008: cells treated with 20 uM CPT-2008.\n(§6) CPT-2008 affects mitochondrial function. […] Given the important role of mitochondria in maintaining cancer cells, especially cancer stem cells, the effects of CPT-2008 on a number of mitochondrial parameters in human glioblastoma (GBM) cells were texted next. First, the effects of CPT-2008 on mitochondrial ROS level were studied. For this purpose, the mito-SOX dye was used. Mito-SOX can specifically monitor mitochondrial ROS levels. […] The effect of CPT-2008 on mitochondrial membrane potential, a key factor that determines mitochondrial health and activity, was also measured using the TRM dye. […] The effect of CPT-2008 on mitochondrial calcium homeostasis was also measured using the Rhod-2AM dye, which specifically monitors mitochondrial calcium levels. […] The effect of CPT-2008 on mitochondrial morphology was also measured using immunostaining of the mitochondrial outer membrane marker Tom20. […] Finally, the effect of CPT-2008 on the self-renewal of GBM cells was tested."}, "GBM cells": {"tested_on": "GBM cells", "test": "Mitochondrial morphology, TOM-20 immunostaining", "assay_type": "cell-based, human", "conditions": "vs DMSO control (FIG. 16)", "excerpt": "GBM cells treated with DMSO (control) or CPT-2008 in DMSO were immunostained for TOM-20 to reveal mitochondrial morphology.\nas §6"}, "HCT116": {"tested_on": "HCT116", "test": "CellTiter-Glo cell viability, HCT116 colorectal cancer model", "assay_type": "cell-based, human", "conditions": "HCT116, 72 hour incubation", "protocol": "as §1, §2, §3, §4, §5"}, "NCI-H1299": {"tested_on": "NCI-H1299", "test": "CellTiter-Glo cell viability, NCI-H1299 NSCLC model", "assay_type": "cell-based, human", "conditions": "NCI-H1299, 72 hour incubation", "protocol": "as §1, §2, §3, §4, §5"}, "[2]": {"test": "Pharmacokinetics in Sprague-Dawley rats (plasma and brain)", "assay_type": "in vivo, rat", "conditions": "for bioavailability: Sprague-Dawley, rat, in vivo", "protocol": "Sprague-Dawley rats were administered CPT-2008 by IV or PO. Blood samples (about 1 mL) were collected via cardiac puncture after euthanasia by carbon dioxide inhalation at 5 min, 15 min, 30 min, 1 h, 2 h, 4 h, 8 h, 24 h of post dose. Blood samples were placed into tubes containing heparin sodium and centrifuged at 3500 rpm for 10 minutes at 4° C. to separate plasma from the samples. Following centrifugation, the resulting plasma was transferred to labeled tubes and stored frozen at −80° C. pending bioanalysis. The brain each studied animal at each time point was collected after the animal was euthanized by carbon dioxide inhalation. The whole tissue was harvested, excised and then placed into one tube per tissue per animal. The tissue samples were placed on dry ice and then stored at −80° C. until bioanalysis."}, "A2780": {"tested_on": "A2780", "test": "CellTiter-Glo cell viability, A2780 ovarian cancer model", "assay_type": "cell-based, human", "conditions": "A2780, 72 hour incubation", "protocol": "as §1, §2, §3, §4, §5"}, "Jurkat": {"tested_on": "Jurkat", "test": "CellTiter-Glo cell viability, Jurkat T cell leukemia model", "assay_type": "cell-based, human", "conditions": "72 hour incubation", "protocol": "as §1, §2, §3, §4, §5"}, "human GBM cells [3]": {"tested_on": "human GBM cells", "test": "Mitochondrial membrane potential, TMRM staining", "assay_type": "cell-based", "conditions": "vs DMSO vehicle (FIG. 17)", "excerpt": "GBM cells treated with DMSO vehicle or with CPT-2008 in DMSO were stained with TMRM to probe mitochondrial membrane potential.\nas §6"}, "U118MG": {"tested_on": "U118MG", "test": "CellTiter-Glo cell viability, U118MG glioblastoma model", "assay_type": "cell-based, human", "conditions": "72 hour incubation", "protocol": "as §1, §2, §3, §4, §5"}, "human GBM cells [4]": {"tested_on": "human GBM cells", "test": "Mitochondrial ROS, Mito-SOX staining", "assay_type": "cell-based", "conditions": "vs DMSO control (FIG. 15)", "excerpt": "GBM cells treated with DMSO vehicle (control) or with CPT-2008 in DMSO were stained with Mito-SOX to probe mitochondrial ROS level.\nas §6"}, "A549": {"tested_on": "A549", "test": "CellTiter-Glo cell viability, A549 NSCLC model", "assay_type": "cell-based, human", "conditions": "A549, 72 hour incubation", "protocol": "as §1, §2, §3, §4, §5"}, "in vitro [5]": {"test": "in vitro", "assay_type": "in vitro ADME", "conditions": "human"}, "T98G": {"tested_on": "T98G", "test": "CellTiter-Glo cell viability, T98G glioblastoma model", "assay_type": "cell-based, human", "conditions": "72 hour incubation", "protocol": "as §1, §2, §3, §4, §5"}, "MCF7": {"tested_on": "MCF7", "test": "CellTiter-Glo cell viability, MCF7 breast cancer model", "assay_type": "cell-based, human", "conditions": "MCF7, 72 hour incubation", "protocol": "as §1, §2, §3, §4, §5"}, "Molt-4": {"tested_on": "Molt-4", "test": "CellTiter-Glo cell viability, Molt-4 T-ALL model", "assay_type": "cell-based, human", "conditions": "Molt-4, 72 hour incubation", "protocol": "as §1, §2, §3, §4, §5"}, "human GBM cells [6]": {"tested_on": "human GBM cells", "test": "Mitochondrial calcium, Rhod-2AM staining", "assay_type": "cell-based", "conditions": "vs DMSO control (FIG. 14)", "excerpt": "GBM cells treated with DMSO vehicle (control) or with CPT-2008 in DMSO were stained with Rhod-2AM to probe mitochondrial calcium (mito-Ca^2+) level. CPT-2008 elevated mito-Ca^2+.\nas §6"}, "in vitro [7]": {"test": "in vitro", "assay_type": "in vitro ADME", "conditions": "human", "remark": "listed apart in the source"}, "Sprague-Dawley rats": {"tested_on": "Sprague-Dawley rats", "test": "Rat middle cerebral artery occlusion (MCAO) stroke model", "assay_type": "in vivo", "conditions": "rat MCAO 1.5 h, 24 h reperfusion; 25-100 mg/kg intraperitoneally 0 h and 8 h after reperfusion; TTC staining; compared with edaravone 6 mg/kg", "protocol": "Edaravone (3-methyl-1-phenyl-2-pyrazolin-5-one) is a reactive oxygen species (ROS) scavenger approved for the treatment of stroke and ALS in Japan, and for the treatment of ALS in the United States. The efficacy of CPT-2008 for preventing brain damage in a rat middle cerebral artery occlusion (MCOA) model was compared with the efficacy of edaravone. Sprague-Dawley rats were dosed with vehicle, edaravone (6 mg/kg), or CPT-2008 (25-100 mg/kg), and the level of infarcted brain tissue was assessed. In this study rats underwent middle cerebral artery occlusion (MCAO) for 1.5 h followed by 24 h reperfusion. CPT-2008 was given intraperitoneally 0 h and 8 h after reperfusion, and behavior deficits and brain insult were assessed by Longa score scale and TTC staining, respectively. […] It is believed that the improved benefit of CPT-2008 is due, in part, to prevention ROS formation in brain tissue mitochondria."}}, "note": "“Also recorded” adds a separate entry of the source."}
{"smiles": "COc1cc(-n2c(S)nc3cc(OC)c(Cl)cc3c2=O)c(Cl)cc1Cl", "note": "[CPT-2008, 6-chloro-3-(2,4-dichloro-5-methoxyphenyl)-2-mercapto-7-methoxyquinazolin-4(3H)-one]", "values": [{"measurement": "IC50", "setting": "NCI-H82", "value": "nM range"}, {"measurement": "paw withdrawal threshold (mechanical allodynia)", "setting": "paclitaxel-treated rats", "value": "increased threshold values"}, {"measurement": "IC50", "setting": "NCI-H446", "value": "nM range"}, {"measurement": "self-renewal of GBM cells (ability to form neurospheres)", "setting": "human GBM cells [1]", "value": "significantly inhibited; also recorded: lost such ability"}, {"measurement": "mitochondrial morphology", "setting": "GBM cells", "value": "dramatic fragmentation of mitochondria; also recorded: induced mitochondrial size reduction"}, {"measurement": "IC50", "setting": "HCT116", "value": "low μM range"}, {"measurement": "IC50", "setting": "NCI-H1299", "value": "low μM range"}, {"measurement": "crossing of the blood brain barrier", "setting": "[2]; Sprague-Dawley rats, IV or PO (FIG. 21A, 21B)", "value": "efficiently cross the blood brain barrier"}, {"measurement": "bioavailability", "setting": "[2]; brain bioavailability", "value": 39, "unit": "%"}, {"measurement": "bioavailability", "setting": "[2]; plasma bioavailability", "value": 94.5, "unit": "%"}, {"measurement": "IC50", "setting": "A2780", "value": "nM range"}, {"measurement": "IC50", "setting": "Jurkat", "value": "nM range"}, {"measurement": "mitochondrial membrane potential", "setting": "human GBM cells [3]", "value": "dramatic reduction; also recorded: dramatically reduced"}, {"measurement": "IC50", "setting": "U118MG", "value": "low μM range"}, {"measurement": "mitochondrial ROS level", "setting": "human GBM cells [4]", "value": "significant increase; also recorded: significantly elevated"}, {"measurement": "IC50", "setting": "A549", "value": "low μM range"}, {"measurement": "stability in microsomes", "setting": "in vitro [5]", "value": "excellent stability"}, {"measurement": "half-life", "setting": "in vitro [5]; microsomes", "value": "~3.6", "unit": "h"}, {"measurement": "IC50", "setting": "T98G", "value": "low μM range"}, {"measurement": "IC50", "setting": "MCF7", "value": "low μM range"}, {"measurement": "IC50", "setting": "Molt-4", "value": "low μM range"}, {"measurement": "mitochondrial calcium (mito-Ca2+) level", "setting": "human GBM cells [6]", "value": "caused an increase; also recorded: elevated"}, {"measurement": "stability in hepatocytes", "setting": "in vitro [7]", "value": "excellent stability"}, {"measurement": "half-life", "setting": "in vitro [7]; hepatocytes, half-life", "value": "~94.3", "unit": "h"}, {"measurement": "level of infarcted (dead) brain tissue", "setting": "Sprague-Dawley rats", "value": "reduced levels of dead brain tissue"}]}
